Key:
[1] = Lipophilicity (logD7.4), n-octanol/PBS pH 7.4; assay type: physicochemical
Description: Cell-based experiments and determination of lipophilicity (logD7.4) were performed as previously published. A detailed description of the in vitro experiments is provided in the Supplementary Materials.
Cell Culture. CCK-2R-expressing rat pancreatic cancer cells AR42J (CLS GmbH, Eppelheim, Germany) were cultivated in monolayers in CELLSTAR® cell culture flasks acquired from Greiner Bio-One GmbH (Frickenhausen, Germany) at 37°C in a humidified atmosphere (5% CO2) using a HERAcell 150i-Incubator (Thermo Fisher Scientific Inc., Waltham, United States). The nutrient medium RPMI 1640 medium, supplemented with 5 mM L-Gln 5 mL non-essential amino acids (100×) and 10% FCS, was used. Furthermore, a Dulbecco’s PBS solution with 0.1% EDTA (v/v) was applied to detach the cells for cell passaging. The detached cells were counted using a Neubauer hemocytometer (Paul Marienfeld, Lauda-Königshofen, Germany). In addition, all operations under sterile conditions were accomplished using a MSC-Advantage safety workbench (Thermo Fisher Scientific Inc., Waltham, United States).
Determination of IC50. AR42J cells (2.0 × 10^5 cells/well) were seeded into 24-well plates 24 ± 2 h prior to testing using 1 mL of nutrient medium (RPMI 1640, 5 mM L-Gln, 5 mL non-essential amino acids (100×), 10% FCS). Cells were incubated at 37°C in a humidified atmosphere (5% CO2).
After the removal of the medium, each well was washed with 500 μL PBS. For the cell-based assay, 200 μL of the nutrient medium (+5% BSA), [ 177Lu]Lu-DOTA-PP-F11N (25 μL, 0.3 pmol) as a radiolabeled reference and 25 μL of the peptide of interest in increasing concentrations (10 −10 to 10−4 M) were added to the cells in triplicate. Thereafter, the assay was incubated for 3 h at 37°C and the supernatant was collected. The cells were washed with 300 μL PBS and the collected supernatant fractions were unified.
After lysis of the cells with NaOH (300 μL, 1 N) for 15 min, the respective wells were washed with NaOH (300 μ L, 1 N) and both fractions were unified. The radioactivity of both the supernatant and the lysed fractions were quantified using a γ-counter (PerkinElmer Inc., Waltham, United States). The obtained data were evaluated via the GraphPad PRISM software (GraphPad Software Inc., La Jolla, United States), which calculates the half-maximal inhibitory concentration (IC50) of the peptides.
Internalization Studies. For the determination of the internalization kinetics of the various peptides, AR42J cells (3.0 × 10^5 cells/well) were seeded into polylysine-coated 24-well plates, adding 1 mL of nutrient medium. Afterwards, the cells were incubated for 24 ± 2 h at 37°C in a humidified atmosphere […]
On the day of the experiment, the medium was removed, and each well was washed with nutrient medium (300 μL). Afterwards 200 μL of nutrient medium, 25 μL of the 177Lu-labeled peptide (0.3 pmol, n = 6) and either 25 μL of nutrient medium for internalization studies ( n = 3) or 25 μL of [natLu]Lu-DOTA-PP-F11N (10 μmol) for competition studies ( n = 3) were added. Thereafter, the assay was incubated for various time points (1, 2, 4 and 6 h) at 37°C in a humidified atmosphere (5% CO2). After incubation, the cells were put on ice for at least 1 min to stop internalization kinetics and the supernatant was collected. Then, the cells were washed with an ice-cold nutrient medium (300 μL) and both fractions were unified. […] The radioactivity of the supernatant, the acid wash and the lysed fractions were quantified using a γ-counter. […]

[2] = biological target: Human serum albumin (HSA) (Homo sapiens, UniProt P02768); experiment: Human serum albumin (HSA) binding, ultracentrifugation method; assay type: in vitro ADME; conditions: HSA 700 µM in PBS, 37 °C, 30 min, n = 6, corrected for unspecific binding
Description: Human serum albumin (HSA) binding was determined in analogy to a previously published ultracentrifugation method. Therefore, the peptides of interest were incubated in a solution of HSA (700 µM in phosphate-buffered saline) at 37 °C for 30 min (n = 6). All values were corrected for unspecific binding.

[3] = Stability studies in human serum; assay type: in vitro ADME; conditions: 37 °C, 24 h; for Intact peptide (%): n = 3, 1440 min; for SiOH-containing analog (%): n = 3, analog with hydrolyzed SiFA moiety
Description: In vitro stability studies in human serum after incubation at 37 °C for 24 h were performed as described in the Supplemental Material.
Stability Studies in Human Serum. The 177Lu- as well as 67Ga-labeled CCK-2R ligands (1 nmol,
approx. 5 MBq) were incubated for 24 h in human serum (200 μL) at 37 °C. After incubation, ice-cold
EtOH (125 μL) and MeCN (375 μL) were added and the suspension was centrifuged for 5 min at
5000 rpm. Then, the supernatant was transferred into new vials and centrifuged for another 5 min at
5000 rpm. After separating the precipitate from the solution, the stability of the ligands was determined

Sequence of Human serum albumin (HSA) (P02768 25-609): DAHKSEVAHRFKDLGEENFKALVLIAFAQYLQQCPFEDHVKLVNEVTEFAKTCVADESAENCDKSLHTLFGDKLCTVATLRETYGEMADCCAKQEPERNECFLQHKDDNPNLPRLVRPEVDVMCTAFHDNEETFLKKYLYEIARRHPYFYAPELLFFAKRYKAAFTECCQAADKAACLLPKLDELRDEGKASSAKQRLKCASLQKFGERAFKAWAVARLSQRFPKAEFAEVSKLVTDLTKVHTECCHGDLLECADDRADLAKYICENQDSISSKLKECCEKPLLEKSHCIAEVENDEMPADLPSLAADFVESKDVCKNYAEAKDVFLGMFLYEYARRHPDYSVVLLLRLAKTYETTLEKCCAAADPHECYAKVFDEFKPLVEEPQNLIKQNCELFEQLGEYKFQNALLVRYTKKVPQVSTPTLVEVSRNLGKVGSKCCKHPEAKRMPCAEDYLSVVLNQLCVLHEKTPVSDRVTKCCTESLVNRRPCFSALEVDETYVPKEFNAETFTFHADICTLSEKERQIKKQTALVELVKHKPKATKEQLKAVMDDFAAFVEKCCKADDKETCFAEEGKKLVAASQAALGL

Row | Compound | logD7.4 ([1]; n-octanol/PBS pH 7.4) | HSA Binding (%) [2] [%] | HSA Binding (%) ([2]; listed as [^177Lu]Lu-DOTA-rhCCK-18) | Intact peptide (%) [3] [%] | SiOH-containing analog (%) [3] [%] | logD ([1]; pH 7.4, n-octanol/PBS pH 7.4, read-out: logD7.4) | SiOH-containing analog (%) ([3]; listed as [177Lu]Lu-DOTA-rhCCK-16)
1 | CCCC[C@H](NC(=O)[C@H](Cc1c[nH]c2ccccc12)NC(=O)CNC(=O)[C@H](Cc1ccc(O)cc1)NC(=O)[C@H](C)NC(=O)CC[C@@H](NC(=O)CC[C@@H](NC(=O)CC[C@@H](NC(=O)CC[C@@H](NC(=O)CC[C@@H](NC(=O)CC[C@@H](NC(=O)CC[C@@H](NC(=O)CC[C@@H](NC(=O)[C@@H](CNC(=O)c1ccc([Si](F)(C(C)(C)C)C(C)(C)C)cc1)NC(=O)CN1CCN(CC(=O)O)CCN(CC(=O)O)CCN(CC(=O)O)CC1)C(=O)O)C(=O)O)C(=O)O)C(=O)O)C(=O)O)C(=O)O)C(=O)O)C(=O)O)C(=O)N[C@@H](CC(=O)O)C(=O)N[C@@H](Cc1ccccc1)C(N)=O [[^19F]F-[^177Lu]Lu-DOTA-rhCCK-18] [metal not drawn] | −2.69 ± 0.06 | 62.6 | 62.6 | 25.3 ± 3.1 | 67.7 ± 3.1 |  | 
2 | CCCC[C@H](NC(=O)[C@H](Cc1c[nH]c2ccccc12)NC(=O)CNC(=O)[C@H](Cc1ccc(O)cc1)NC(=O)[C@H](C)NC(=O)CC[C@@H](NC(=O)CC[C@@H](NC(=O)CC[C@@H](NC(=O)CC[C@@H](NC(=O)CC[C@@H](NC(=O)CC[C@@H](NC(=O)[C@@H](CNC(=O)c1ccc([Si](F)(C(C)(C)C)C(C)(C)C)cc1)NC(=O)CN1CCN(CC(=O)O)CCN(CC(=O)O)CCN(CC(=O)O)CC1)C(=O)O)C(=O)O)C(=O)O)C(=O)O)C(=O)O)C(=O)O)C(=O)N[C@@H](CC(=O)O)C(=O)N[C@@H](Cc1ccccc1)C(N)=O [[^177Lu]Lu-DOTA-rhCCK-16, metal not drawn] |  | 89.1 |  | 21.8 ± 0.8 |  | -2.7 ± 0.09 | 69.1 ± 1.0
